# Measurements from PMC9207808 (ACS Chemical Biology, 2022).
# Residues, ends and D or L forms follow the SMILES beside them.
# Legend:
# [1] = system: DocSTm; assay: Differential scanning fluorimetry (thermal stabilisation of Doc); assay type: binding, S. Typhimurium; conditions: for melting temperature shift ΔTm: DSF, DocSTm 5 μM, analyte 50 μM, Tm with analyte minus Tm of free DocSTm (42.9 ± 0.9 °C), SYPRO Orange, 20 mM K2HPO4, 50 mM (NH4)2SO4, pH 8.0, triplicate; for Average Tm / Tm: DocSTm 5 µM + 50 µM binder; for Average Tm: average of 3 replicates
# Method: Experiments were performed in a Mx3005P qPCR System (Agilent) collecting fluorescence data with a temperature ramp of 25 to 95 °C. Samples were prepared in a buffer containing 20 mM K2HPO4 and 50 mM (NH4)2SO4 at pH 8.0. The SYPRO Orange dye (Sigma-Aldrich, 5000× stock in DMSO) was used to monitor protein denaturation and was diluted to a final concentration of 3×. For binding experiments, the final concentration of Doc was 5 μM. Each condition was performed in triplicate (ESI section 4) and the melting curves were plotted using GraphPad Prism 5 (GraphPad Software, U.S.A.). The melting temperatures were obtained by fitting the sigmoidal section of the curves to a Boltzmann sigmoid function.
# [2] = molecular target: DocSTm; assay: Surface plasmon resonance binding to immobilised Doc; design: species or system S. Typhimurium; conditions: for koff × 10^-6 / kon × 10^6: 1:1 kinetic fit, mean ± SD of at least 3 replicates; for kon × 10^6: single-cycle kinetics (multicycle for PhdSTm1-73); for Half-life of the complex: t1/2 = ln2 / koff
# Method: Experiments were performed in a Biacore S200 (Cytiva) with a Series S sensor chip NTA (Cytiva). The data was analyzed using the Biacore Evaluation Software (Cytiva) and curves were plotted using GraphPad Prism 5 (GraphPad Software, U.S.A.). All experiments were performed at 22 °C with a running buffer containing 10 mM HEPES, 500 mM NaCl, 50 μM EDTA, and 0.005% (v/v) TWEEN 20 at pH 8.0. The surface was conditioned following the standard manufacturer’s guidelines and protein immobilization was performed with a 30–60 s pulse (flow rate of 5 μL/min) of Doc (150 nM) in running buffer. […] Surface regeneration was performed with a 1 min pulse of 0.5 M imidazole followed by a 1 min pulse of 0.35 M of EDTA at pH 8.0.
# Binding to Doc was performed using a multicycle kinetics (MCK) setup for peptides 7, 10, and 14, while the remaining samples were tested using a single-cycle kinetics (SCK) setup. The surface was fully regenerated in between each analyte in both cases. In the MCK experiments, increasing concentrations of each analyte were injected with an 80 s pulse (30 μL/min) and dissociation times varied depending on the time required to fully dissociate the complex. The double-referenced sensorgrams (raw data subtracted from a blank injection and reference surface responses) were analyzed using a kinetic and/or a steady-state 1:1 binding model. In the SCK experiments, typically six concentrations of each analyte were sequentially injected with 80 s pulses (30 μL/min), and dissociation times varied depending on the time required to dissociate at least 5% of the complex. The double-referenced sensorgrams were fitted using a kinetic 1:1 binding model.
# At least three independent replicates were measured for each analyte (ESI section 5). When a steady-state fit was applied, the reported Kd and its uncertainty correspond, respectively, to the average and standard deviations of the Kd obtained in each measurement. When a kinetic fit was applied, the reported rate constants (kon and koff) and their uncertainties correspond, respectively, to the average and standard deviations of the rate constants obtained in each measurement. In this case, reported Kd were calculated using the equation below, and the standard deviation of the rate constants was propagated. [drawing 1]
# [3] = system: DocSTm; assay: Dot blot phosphorylation assay (EF-Tu phosphorylation by Doc); assay type: biochemical, S. Typhimurium; conditions: α-pThr, DocSTm 1 μM, EF-TuSTm 3 μM, ATP 1 mM, inhibitor 10 μM to 5 nM (3-fold dilutions), 16 h at RT
# Method: Samples were prepared to a final volume of 10 μL. […] Samples were incubated for 16 h at RT and subsequently spotted on a nitrocellulose membrane. Phosphorylated EF-Tu was detected by immunodecoration using a rabbit monoclonal antiphosphothreonine antibody (Abcam, ab218195) at 1:2000 dilution (1 h at 4 °C), followed by incubation with a goat antirabbit IgG (H+L) HRP conjugate antibody (Advansta) at 1:10 000 dilution (1 h at RT). Chemiluminescence was developed using the HRP Luminata kit (Merck, WBLUR0100) and captured by an ImageQuant LAS4000 Western blot imaging system (Cytiva).
# [4] = SPR, kinetic fit, KD calculated from mean koff and kon, SD propagated, 22 °C, pH 8.0
Compound,melting temperature shift ΔTm [1] [°C],Average Tm [1] [°C],Tm ([1]; replicate 1) [°C],Tm ([1]; replicate 2) [°C],Tm ([1]; replicate 3) [°C],"Kd ([2]; SPR kinetic fit, replicate 1) [nM]","Kd ([2]; SPR kinetic fit, replicate 2) [nM]","Kd ([2]; SPR kinetic fit, replicate 3) [nM]","koff × 10^-6 ([2]; SPR, 22 °C, pH 8.0)","kon × 10^6 ([2]; SPR, 22 °C, pH 8.0)","Kd [2, 4] [nM]",Half-life of the complex [2] [h],inhibition of EF-TuSTm phosphorylation by DocSTm (in words) [3],"Kd ([2]; SPR kinetic fit, replicate 4) [nM]"
CC[C@H](C)[C@H](NC(=O)[C@H](C)NC(=O)[C@H](C)NC(=O)[C@H](Cc1ccccc1)NC(=O)[C@H](CCC(=O)O)NC(=O)[C@H](CC(=O)O)NC(=O)[C@H](CC(=O)O)NC(=O)[C@H](CCSC)NC(=O)[C@H](Cc1c[nH]c2ccccc12)NC(C)=O)C(=O)N[C@@H](CCSC)C(=O)N[C@@H](C)C(=O)N[C@H](C(=O)N[C@@H](Cc1c[nH]cn1)C(=O)NCC(=O)N[C@@H](CC(N)=O)C(=O)N[C@@H](C)C(=O)N[C@@H](CC(C)C)C(=O)N[C@@H](CCCNC(=N)N)C(=O)N[C@@H](CCC(=O)O)C(=O)N[C@@H](CC(C)C)C(=O)N[C@@H](C)C(=O)N[C@@H](CC(=O)O)C(=O)N[C@@H](CCCCN)C(=O)O)C(C)C [peptide 13] (Ac-WMDDEFAAIMAVHGNALRELADK-OH; C-terminus assumed),27.7 ± 0.9,70.6 ± 0.2,70.8,70.4,70.6,0.0475,0.0451,0.0352,112 ± 38 ×10^-6 s-1,2.705 ± 1.041 ×10^6 M-1 s-1,0.042 ± 0.021,1.7 ± 0.6,inhibited DocSTm at similar concentrations to peptide 1,–
CC[C@H](C)[C@H](NC(=O)[C@H](C)NC(=O)[C@H](C)NC(=O)[C@H](Cc1ccccc1)NC(=O)[C@H](CCC(=O)O)NC(=O)[C@H](CC(=O)O)NC(=O)[C@H](CC(=O)O)NC(=O)[C@H](CCSC)NC(=O)[C@H](Cc1c[nH]c2ccccc12)NC(C)=O)C(=O)N[C@@H](CCSC)C(=O)N[C@@H](C)C(=O)N[C@H](C(=O)N[C@@H](Cc1c[nH]cn1)C(=O)NCC(=O)N[C@@H](CC(N)=O)C(=O)N[C@@H](CCC(=O)O)C(=O)N[C@@H](CC(C)C)C(=O)N[C@@H](CCCNC(=N)N)C(=O)N[C@@H](C)C(=O)N[C@@H](CC(C)C)C(=O)N[C@@H](C)C(=O)N[C@@H](CC(=O)O)C(=O)N[C@@H](CCCCN)C(=O)O)C(C)C [peptide 16] (Ac-WMDDEFAAIMAVHGNELRALADK-OH; C-terminus assumed),30.7 ± 0.9,73.6 ± 0.2,73.5,73.5,73.9,0.0687,0.0703,0.0518,136 ± 41 ×10^-6 s-1,2.101 ± 0.333 ×10^6 M-1 s-1,0.065 ± 0.022,1.4 ± 0.4,–,–
CC[C@H](C)[C@H](NC(=O)[C@H](C)NC(=O)[C@H](C)NC(=O)[C@H](Cc1ccccc1)NC(=O)[C@H](CCC(=O)O)NC(=O)[C@H](CC(=O)O)NC(=O)[C@H](CC(=O)O)NC(=O)[C@H](CCSC)NC(=O)[C@H](Cc1c[nH]c2ccccc12)NC(C)=O)C(=O)N[C@@H](CCSC)C(=O)N[C@@H](C)C(=O)N[C@H](C(=O)N[C@@H](Cc1c[nH]cn1)C(=O)NCC(=O)N[C@@H](CC(N)=O)C(=O)N[C@@H](CCC(=O)O)C(=O)N[C@@H](CC(C)C)C(=O)N[C@@H](CCCNC(=N)N)C(=O)N[C@@H](CCC(=O)O)C(=O)N[C@@H](CC(C)C)C(=O)N[C@@H](C)C(=O)N[C@@H](C)C(=O)N[C@@H](CCCCN)C(=O)O)C(C)C [peptide 18] (Ac-WMDDEFAAIMAVHGNELRELAAK-OH; C-terminus assumed),28.0 ± 0.9,70.9 ± 0.3,71.1,71.0,70.6,0.0532,0.0189,0.0385,84 ± 33 ×10^-6 s-1,2.508 ± 0.964 ×10^6 M-1 s-1,0.033 ± 0.018,2.3 ± 0.9,–,–
CC[C@H](C)[C@H](NC(=O)[C@H](C)NC(=O)[C@H](C)NC(=O)[C@H](Cc1ccccc1)NC(=O)[C@H](CCC(=O)O)NC(=O)[C@H](CC(=O)O)NC(=O)[C@H](CC(=O)O)NC(=O)[C@H](CCSC)NC(=O)[C@H](Cc1c[nH]c2ccccc12)NC(C)=O)C(=O)N[C@@H](CCSC)C(=O)N[C@@H](C)C(=O)N[C@H](C(=O)N[C@@H](Cc1c[nH]cn1)C(=O)NCC(=O)N[C@@H](CC(N)=O)C(=O)N[C@@H](CCC(=O)O)C(=O)N[C@@H](CC(C)C)C(=O)N[C@@H](CCCNC(=N)N)C(=O)N[C@@H](CCC(=O)O)C(=O)N[C@@H](CC(C)C)C(=O)N[C@@H](C)C(=O)N[C@@H](CC(=O)O)C(=O)N[C@@H](C)C(=O)O)C(C)C [peptide 19] (Ac-WMDDEFAAIMAVHGNELRELADA-OH; C-terminus assumed),25.2 ± 1.1,68.0 ± 0.6,68.8,67.6,67.7,0.101,0.0634,0.1,126 ± 11 ×10^-6 s-1,1.441 ± 0.462 ×10^6 M-1 s-1,0.087 ± 0.029,1.5 ± 0.1,inhibited DocSTm at similar concentrations to peptide 1,0.103
CC[C@H](C)[C@H](NC(=O)[C@H](C)NC(=O)[C@H](C)NC(=O)[C@H](Cc1ccccc1)NC(=O)[C@H](CCC(=O)O)NC(=O)[C@H](CC(=O)O)NC(=O)[C@H](CC(=O)O)NC(=O)[C@H](CCSC)NC(=O)[C@H](Cc1c[nH]c2ccccc12)NC(C)=O)C(=O)N[C@@H](CCSC)C(=O)N[C@@H](C)C(=O)N[C@H](C(=O)N[C@@H](Cc1c[nH]cn1)C(=O)NCC(=O)N[C@@H](CC(N)=O)C(=O)N[C@@H](CCC(=O)O)C(=O)N[C@@H](CC(C)C)C(=O)N[C@@H](CCCNC(=N)N)C(=O)N[C@@H](CCC(=O)O)C(=O)N[C@@H](CC(C)C)C(=O)N[C@@H](C)C(=O)O)C(C)C [peptide 20] (Ac-WMDDEFAAIMAVHGNELRELA-OH; N-terminus and C-terminus assumed),25.6 ± 0.9,68.5 ± 0.1,68.5,68.4,68.5,0.447,0.414,0.424,393 ± 18 ×10^-6 s-1,0.917 ± 0.023 ×10^6 M-1 s-1,0.428 ± 0.023,0.49 ± 0.02,inhibition of DocSTm comparable to 1,–
